# Measured values taken from patent US7060822B1, “2-pyrazolin-5-ones” (Abbott GmbH & Co. KG, priority 1999, dated 2006).
row,SMILES,melting point
1,"CC(C)OC1=NNC(=O)C1=Cc1cn(CCCCO)c2ccccc12 [Example 238, 4-{[1-(4-Hydroxybutyl)indol-3-yl]methylene}-3-isopropoxy-2-pyrazolin-5-one]",210 to 212 °C
2,"O=C1NN=C(OC2CCCC2)C1=Cc1ccc[nH]1 [Example 39, 3-Cyclopentyloxy-4-[(pyrrol-2-yl)methylene]-2-pyrazolin-5-one]",201 to 203 °C
3,"Cc1[nH]c(C=C2C(=O)NN=C2c2ccno2)c(C)c1CN1CCCCC1 [Example 168, 4-[(3,5-Dimethyl-4-piperidinomethylpyrrol-2-yl)methylene]-3-(5-isoxazolyl)-2-pyrazolin-5-one]",215 to 217 °C
4,"O=C1NN=C(Cc2ccccc2)C1=Cc1cn(CCCCO)c2ccccc12 [Example 211, 3-Benzyl-4-{[1-(4-hydroxybutyl)indol-3-yl]methylene}-2-pyrazolin-5-one]",217 to 220 °C
5,"Cc1c[nH]c(C=C2C(=O)NN=C2c2cnccn2)c1C [Example 98, 4-[(3,4-dimethylpyrrol-2-yl)methylene]-3-pyrazinyl-2-pyrazolin-5-one]",245 to 250 °C
6,"O=C1NN=C(C2CC2)C1=Cc1ccc(CN2CCOCC2)[nH]1 [Example 109, 3-Cyclopropyl-4-[(5-morpholinomethylpyrrol-2-yl)methylene]-2-pyrazolin-5-one]",184 to 186 °C
7,"Cc1[nH]c(C=C2C(=O)NN=C2c2cnccn2)cc1CN(C)C [Example 170, 4-[(5-Methyl-4-dimethylaminomethylpyrrol-2-yl)methylene]-3-pyrazinyl-2-pyrazolin-5-one]",193 to 195 °C
8,"O=C1NN=C(C2CC2)C1=Cc1ccc(-c2ccccc2)[nH]1 [Example 93, 3-Cyclopropyl-4-[(5-phenylpyrrol-2-yl)methylene]-2-pyrazolin-5-one]",208 to 210 °C
9,"Cn1cc(C=C2C(=O)NN=C2C2CC2)c2ccc(C(=O)O)cc21 [Example 287, 4-[(6-Carboxy-1-methylindol-3-yl)methylene]-3-cyclopropyl-2-pyrazolin-5-one]",237 to 240 °C (dec.)
10,"CCN(CC)CCCCc1c(C)[nH]c(C=C2C(=O)NN=C2c2cnccn2)c1C [Example 193, 4-{[4-(4-Diethylaminobutyl)-3,5-dimethylpyrrol-2-yl]methylene}-3-pyrazinyl-2-pyrazolin-5-one]",184 °C
11,"O=C1NN=C(CCc2ccccc2)C1=Cc1cn(CCCCO)c2ccccc12 [Example 239, 4-{[1-(4-Hydroxybutyl)indol-3-yl]methylene}-3-phenylethyl-2-pyrazolin-5-one]",205 to 207 °C
12,"CN(C)c1ccc(C=C2C(=O)NN=C2CCc2ccccc2)cc1 [Example 360, 4-[(4-Dimethylaminophenyl)methylene]-3-phenylethyl-2-pyrazolin-5-one]",224 to 225 °C
13,"CCNCCc1c(C)[nH]c(C=C2C(=O)NN=C2c2cnccn2)c1C [Example 185, 4-{[3,5-Dimethyl-4-(2-ethylaminoethyl)pyrrol-2-yl]methylene}-3-pyrazinyl-2-pyrazolin-5-one]",192 to 194 °C
14,"O=C(CC1=NNC(=O)C1=Cc1ccc[nH]1)Nc1ccc(Cl)cc1 [Example 92, 3-(4-Chlorophenylaminocarbonylmethyl)-4-[(pyrrol-2-yl)methylene]-2-pyrazolin-5-one]",240 to 242 °C

# Now from value to compound:
row,melting point,SMILES
1,282 to 284 °C,"COc1ccc(CC2=NNC(=O)C2=Cc2c[nH]c3ccccc23)cc1OC [Example 227, 3-(3,4-dimethoxybenzyl)-4-[(indol-3-yl)methylene]-2-pyrazolin-5-one]"
2,265 to 270 °C,"COc1ccc(CC2=NNC(=O)C2=Cc2c[nH]c3ccccc23)cc1 [Example 215, 4-[(Indol-3-yl)methylene]-3-(4-methoxybenzyl)-2-pyrazolin-5-one]"
3,254 to 256 °C,"Cc1cccc2c(C=C3C(=O)NN=C3OC(C)C)c[nH]c12 [Example 245, 3-Isopropoxy-4-[(7-methylindol-3-yl)methylene]-2-pyrazolin-5-one]"
4,262 to 264 °C,"Cc1[nH]c2ccccc2c1C=C1C(=O)NN=C1OC(C)C [Example 244, 3-Isopropoxy-4-[(2-methylindol-3-yl)methylene]-2-pyrazolin-5-one]"
5,288 to 291 °C,"Cc1ccc(OCC2=NNC(=O)C2=Cc2c[nH]c3ccccc23)cc1 [Example 216, 4-[(Indol-3-yl)methylene]-3-(4-methylphenyloxymethyl)-2-pyrazolin-5-one]"
6,218 to 219 °C,"Cn1cc(C=C2C(=O)NN=C2Nc2ccc(F)cc2)c2ccccc21 [Example 296, 3-(4-Fluorophenylamino)-4-[(1-methylindol-3-yl)methylene]-2-pyrazolin-5-one]"
7,248 to 250 °C,"O=C1NN=C(Nc2ccc(Cl)cc2)C1=Cc1c[nH]c2ccccc12 [Example 225, 3-(4-Chlorophenylamino)-4-[(indol-3-yl)methylene]-2-pyrazolin-5-one]"
8,288 to 290 °C,"COc1ccc(NC2=NNC(=O)C2=Cc2ccc[nH]2)cc1 [Example 16, 3-(4-Methoxyphenylamino)-4-[(pyrrol-2-yl)methylene]-2-pyrazolin-5-one]"
9,> 300 °C,"O=C1NN=C(c2nc3ccccc3s2)C1=Cc1c[nH]c2ccccc12 [Example 268, 3-(Benzothiazol-2-yl)-4-[(indol-3-yl)methylene]-2-pyrazolin-5-one]"
10,300 °C (dec.),"CC(C)C1=NNC(=O)C1=Cc1c[nH]c2ncccc12 [Example 343, 4-[(7-Azaindol-3-yl)methylene]-3-isopropyl-2-pyrazolin-5-one]"
11,270 to 272 °C,"O=C1NN=C(CCc2ccc(O)cc2)C1=Cc1c[nH]c2ncccc12 [Example 341, 4-[(7-Azaindol-3-yl)methylene]-3-(4-hydroxyphenylethyl)-2-pyrazolin-5-one]"
12,250 °C (dec.),"CCOC(=O)C1=NNC(=O)C1=Cc1c[nH]c2ccccc12 [Example 283, 3-Ethoxycarbonyl-4-[(indol-3-yl)methylene]-2-pyrazolin-5-one]"
13,258 to 260 °C,"CN(C)C(=O)CCC1=NNC(=O)C1=Cc1c[nH]c2ccccc12 [Example 260, 3-(2-Dimethylaminocarbonylethyl)-4-[(indol-3-yl)methylene]-2-pyrazolin-5-one]"
14,245 to 247 °C,"Cn1cc(C=C2C(=O)NN=C2C2CC2)c2ccccc21 [Example 273, 3-Cyclopropyl-4-[(1-methylindol-3-yl)methylene]-2-pyrazolin-5-one]"
15,265 to 267 °C,"COc1ccc(NC2=NNC(=O)C2=Cc2c[nH]c3ccccc23)cc1 [Example 222, 4-[(Indol-3-yl)methylene]-3-(4-methoxyphenylamino)-2-pyrazolin-5-one]"
16,255 to 257 °C,"Cc1ccc(NC2=NNC(=O)C2=Cc2c[nH]c3ccccc23)cc1 [Example 221, 4-[(Indol-3-yl)methylene]-3-(4-methylphenylamino)-2-pyrazolin-5-one]"
17,280 to 281 °C,"NC(=O)CCC1=NNC(=O)C1=Cc1c[nH]c2ccccc12 [Example 258, 3-(2-Aminocarbonylethyl)-4-[(indol-3-yl)methylene]-2-pyrazolin-5-one]"
